# Reference: PubChem BioAssay AID602445 (National Center for Advancing Translational Sciences (NCATS), 2012)
# System: mouse liver microsomes with NADPH, percent remaining
# Assay: High Content Assay for Compounds that inhibit the Assembly of the Perinucleolar Compartment: Mouse Liver Microsome Stability with NADPH
# Conditions: active compounds read low
# From the text: The perinucleolar compartment (PNC) is a non-membrane-bound nuclear subdomain that is associated with but structurally distinct from the nucleolus. The PNC is a heritable trait, in which the number of PNCs per cell in daughter cells often mimics that of their mother cells. The PNC is heterogeneous in shape, is stable through interphase, disassembles during mitosis, and reassembles in early G1. The PNC is concentrated with newly synthesized RNA polymerase III (pol III) RNAs (MRP RNA, RNAse P H1 RNA, hY RNAs[hY1, 2, 5], Alu RNA, and SRP [7SL] RNA) and RNA binding proteins (nucleolin, PTB, CUG-BP, KSRP, Raver1, Raver2, and Rod).
# Extensive in vitro studies have shown that the PNC is unique to tumor cells and preferentially forms in tumor cells derived from solid tissues. Examination of cancer cell lines from various origins and malignant capacities has shown that PNC prevalence correlates with the malignancy of tumors and has the potential to be developed as a pan-cancer prognostic marker.
# Mouse liver microsomes are generated from lysed mouse liver. […]
# 1uM of compound in incubated in mouse liver microsome; the reference compound is ketanserin. […] Samples are analyzed with LC-MS/MS.
smiles,measurement,value
N=c1c2c(-c3ccccc3)c(-c3ccccc3)n(Cc3ccccc3)c2ncn1C1CCC(O)CC1 (stereo unspecified),percent remaining,107%
